Test results taken from US20110046127A1, “Imidazopyridazines for Use as Protein Kinase Inhibitors” (priority 2007, published 2011).

system: T1, PIM-1 or PIM-2; assay: PIM-1 / PIM-2 biochemical assay (ADP Hunter assay kit); set-up: species or system human; conditions: tested in either the PIM-1 or the PIM-2 biochemical assay (as appropriate); ATP 100 μM
T1 construct: fused on or other part: C-terminal histidine tag (PIM-1 enzyme); N-terminal histidine tag (PIM-2 enzyme)
From the text: The biochemical assay to measure PIM-1 activity relies on the ADP Hunter assay kit (DiscoveRx Corp., Cat. # 90-0077), that determines the amount of ADP as direct product of the kinase enzyme activity.
The enzyme has been expressed and purified in-house as a recombinant human protein with a C-terminal histidine tag. The protein is active and stable.
(§1) Assay conditions were as indicated by the kit manufacturers with the following adaptations for the kinase activity step: • Kinase assay buffer and assay volume stay as recommended (15 mM HEPES, pH 7.4, 20 mM NaCl, 1 mM EGTA, 0.02% Tween 20, 10 mM MgCl2 and 0.1 mg/ml bovine γ-globulins/75 μl assay volume) • Incubation time and temperature: 60 min at 30° C. • PIM-1 concentration: 50 pg/μl • ATP concentration: 100 μM • PIM-1 substrate peptide: PIMtide (ARKRRRHPSGPPTA) • Peptide concentration: 60 μM • Positive control for kinase activity inhibition: 1-10 μM Staurosporine • DMSO concentration have to stay below 2% during the kinase reaction
Assays were performed in either 96 or 384-well plates. The final outcome of the coupled reactions provided by the kit is the release of the fluorescent product Resorufin and has been measured with a multilabel HTS counter VICTOR V (PerkinElmer) using an excitation filter at 544 nm and an emission filter at 580 nm.
The biochemical assay to measure PIM-2 activity relies on the ADP Hunter assay kit (DiscoveRx Corp., Cat. # 90-0077), that determines the amount of ADP as direct product of the kinase enzyme activity.
The enzyme has been expressed and purified in-house as a recombinant human protein with a N-terminal histidine tag. The protein is active and stable.
as §1, with “mg/ml bovine γ-globulins/20 μl assay” for “mg/ml bovine γ-globulins/75 μl assay”, “and temperature: 30 min at” for “and temperature: 60 min at”, “C. • PIM-2 concentration: 350” for “C. • PIM-1 concentration: 50”, “PIM-2 concentration: 350 pg/μl •” for “PIM-1 concentration: 50 pg/μl •”, “Peptide concentration: 100 μM •” for “Peptide concentration: 60 μM •”

IC50 [nM] | Compound
60 | O=C(Nc1ccccc1)c1cnc2ccc(Nc3cccnc3)nn12 [Example 41, 6-(Pyridin-3-ylamino)-imidazo[1,2-b]pyridazine-3-carboxylic acid phenyl-amide]
60 | CN(Cc1ccc(Cl)c(Cl)c1)c1ccc2ncc(C(=O)Nc3ccccc3)n2n1 [Example 42, 6-[(3,4-Dichloro-benzyl)-methyl-amino]-imidazo[1,2-b]pyridazine-3-carboxylic acid phenylamide]
180 | O=C(Nc1ccccc1)c1cnc2ccc(N3Cc4ccccc4C3)nn12 [Example 44, 6-(1,3-Dihydro-isoindol-2-yl)-imidazo[1,2-b]pyridazine-3-carboxylic acid phenylamide]
490 | O=C(Nc1ccccc1)c1cnc2ccc(-c3ccccc3)nn12 [Example 45, 6-Phenyl-imidazo[1,2-b]pyridazine-3-carboxylic acid phenylamide]
380 | COc1ccc(-c2ccc3ncc(C(=O)Nc4ccccc4)n3n2)cc1 [Example 46, 6-(4-Methoxy-phenyl)-imidazo[1,2-b]pyridazine-3-carboxylic acid phenyl-amide]
470 | O=C(Nc1ccccc1)c1cnc2ccc(-c3ccoc3)nn12 [Example 47, 6-Furan-3-yl-imidazo[1,2-b]pyridazine-3-carboxylic acid phenylamide]
33000 | Clc1ccc(CNc2ccc3ncc(CN4CCOCC4)n3n2)cc1Cl [Example 53, (3,4-Dichloro-benzyl)-(3-morpholin-4-ylmethyl-imidazo[1,2-b]pyridazin-6-yl)-amine]
70 | Cc1cc(NCc2ccc(Cl)c(Cl)c2)nn2c(C(=O)Nc3ccccc3)cnc12 [Example 54, 6-(3,4-Dichloro-benzylamino)-8-methyl-imidazo[1,2-b]pyridazine-3-carboxylic acid phenylamide]
70 | Cc1cc2ncc(C(=O)Nc3ccccc3)n2nc1NCc1ccc(Cl)c(Cl)c1 [Example 55, 6-(3,4-Dichloro-benzylamino)-7-methyl-imidazo[1,2-b]pyridazine-3-carboxylic acid phenylamide]
300 | Cc1cc2ncc(C(=O)Nc3ccccc3)n2nc1NCc1ccco1 [Example 58, 6-[(Furan-2-ylmethyl)-amino]-7-methyl-imidazo[1,2-b]pyridazine-3-carboxylic acid phenylamide]
60 | Cc1ccc(CNc2nn3c(C(=O)Nc4ccccc4)cnc3cc2C)cc1F [Example 60, 6-(3-Fluoro-4-methyl-benzylamino)-7-methyl-imidazo[1,2-b]pyridazine-3-carboxylic acid phenylamide]
60 | Cc1cc2ncc(C(=O)Nc3ccccc3)n2nc1NCc1cccc(F)c1 [Example 61, 6-(3-Fluoro-benzylamino)-7-methyl-imidazo[1,2-b]pyridazine-3-carboxylic acid phenylamide]
160 | CCOC(=O)c1cccc(NC(=O)c2cnc3c(C)cc(NCc4ccc(OC)cc4)nn23)c1 [Example 64, 3-{[6-(4-Methoxy-benzylamino)-8-methyl-imidazo[1,2-b]pyridazine-3-carbonyl]-amino}-benzoic acid ethyl ester]
19300 | COc1ccc(CNc2cc(C)c3ncc(C(=O)Nc4cccc(C(=O)O)c4)n3n2)cc1 [Example 65, 3-{[6-(4-Methoxy-benzylamino)-8-methyl-imidazo[1,2-b]pyridazine-3-carbonyl]-amino}-benzoic acid]
3130 | CNC(=O)c1cccc(NC(=O)c2cnc3c(C)cc(NCc4ccc(OC)cc4)nn23)c1 [Example 66, 6-(4-Methoxy-benzylamino)-8-methyl-imidazo[1,2-b]pyridazine-3-carboxylic acid (3-methylcarbamoyl-phenyl)-amide]
80 | O=C(Nc1ccccc1)c1cnc2cc(C3CCCC3)c(NCc3ccc(F)cc3)nn12 [Example 68, 7-Cyclopentyl-6-(4-fluoro-benzylamino)-imidazo[1,2-b]pyridazine-3-carboxylic acid phenylamide]
190 | COc1ccc(CNc2nn3c(C(=O)Nc4ccccc4)cnc3cc2C2CCCC2)cc1 [Example 69, 7-Cyclopentyl-6-(4-methoxy-benzylamino)-imidazo[1,2-b]pyridazine-3-carboxylic acid phenylamide]

The remaining lines, values behind:

Compound | IC50 [nM]
COc1ccc(NC(=O)c2cnc3ccc(NCc4ccc(F)cc4)nn23)cc1 [Example 11, 6-(4-Fluoro-benzylamino)-imidazo[1,2-b]pyridazine-3-carboxylic acid (4-methoxy-phenyl)-amide] | 80
COc1ccc(NC(=O)c2cnc3ccc(NCc4ccco4)nn23)cc1OC [Example 15, 6-[(Furan-2-ylmethyl)-amino]-imidazo[1,2-b]pyridazine-3-carboxylic acid (3,4-dimethoxy-phenyl)-amide] | 4030
O=C(Nc1ccc2[nH]ccc2c1)c1cnc2ccc(NCc3ccc(Cl)c(Cl)c3)nn12 [Example 17, 6-(3,4-Dichloro-benzylamino)-imidazo[1,2-b]pyridazine-3-carboxylic acid (1H-indol-5-yl)-amide] | 430
O=C(Nc1ccccc1)c1cnc2ccc(NCc3ccc(Cl)c(Cl)c3)nn12 [Example 18, 6-(3,4-Dichloro-benzylamino)-imidazo[1,2-b]pyridazine-3-carboxylic acid phenyl-amide] | 60
COCCNC(=O)c1cnc2ccc(NCc3ccc(Cl)c(Cl)c3)nn12 [Example 19, 6-(3,4-Dichloro-benzylamino)-imidazo[1,2-b]pyridazine-3-carboxylic acid (2-methoxy-ethyl)-amide] | 4660
CC(=O)c1cccc(NC(=O)c2cnc3ccc(NCc4ccc(Cl)c(Cl)c4)nn23)c1 [Example 22, 6-(3,4-Dichloro-benzylamino)-imidazo[1,2-b]pyridazine-3-carboxylic acid (3-acetylphenyl)amide] | 33000
O=C(Nc1cccnc1)c1cnc2ccc(NCc3ccc(Cl)c(Cl)c3)nn12 [Example 23, 6-(3,4-Dichloro-benzylamino)-imidazo[1,2-b]pyridazine-3-carboxylic acid pyridin-3-yl-amide] | 130
CCNC(=O)c1cnc2ccc(NCc3ccc(Cl)c(Cl)c3)nn12 [Example 25, 6-(3,4-Dichloro-benzylamino)-imidazo[1,2-b]pyridazine-3-carboxylic acid ethylamide] | 2200
COc1ccc(NC(=O)c2cnc3ccc(NCc4ccc(S(N)(=O)=O)cc4)nn23)cn1 [Example 27] | 1140
O=C(O)c1ccc(NC(=O)c2cnc3ccc(NCc4ccc(Cl)c(Cl)c4)nn23)cc1 [Example 29, 4-{[6-(3,4-Dichloro-benzylamino)-imidazo[1,2-b]pyridazine-3-carbonyl]-amino}-benzoic acid] | 260
COc1ccc(CNc2ccc3ncc(C(=O)Nc4ccc(C(=O)O)cc4)n3n2)cc1 [Example 30] | 380
COc1ccc(CNc2ccc3ncc(C(=O)Nc4cccc(C(=O)O)c4)n3n2)cc1 [Example 31, 3-{[6-(4-Methoxy-benzylamino)-imidazo[1,2-b]pyridazine-3-carbonyl]-amino}-benzoic acid] | 7380
O=C(Nc1ccc(O)cc1)c1cnc2ccc(NCc3ccc(F)cc3)nn12 [Example 32, 6-(4-Fluoro-benzylamino)-imidazo[1,2-b]pyridazine-3-carboxylic acid (4-hydroxy-phenyl)-amide] | 70
O=C(Nc1ccccc1)c1cnc2ccc(OCc3ccccc3)nn12 [Example 34, 6-Benzyloxy-imidazo[1,2-b]pyridazine-3-carboxylic acid phenylamide] | 11000
O=C(Nc1ccccc1)c1cnc2ccc(Oc3ccccc3)nn12 [Example 35, 6-Phenoxy-imidazo[1,2-b]pyridazine-3-carboxylic acid phenylamide] | 120
O=C(Nc1ccccc1)c1cnc2ccc(Oc3ccc(F)cc3)nn12 [Example 36] | 2260
O=C(Nc1ccccc1)c1cnc2ccc(-n3cccc3)nn12 [Example 37, 6-Pyrrol-1-yl-imidazo[1,2-b]pyridazine-3-carboxylic acid phenylamide] | 530
O=C(Nc1ccccc1)c1cnc2ccc(-n3ccnc3)nn12 [Example 38, 6-Imidazol-1-yl-imidazo[1,2-b]pyridazine-3-carboxylic acid phenylamide] | 4630
O=C(Nc1ccccc1)c1cnc2ccc(Nc3ccccc3)nn12 [Example 39, 6-Phenylamino-imidazo[1,2-b]pyridazine-3-carboxylic acid phenylamide] | 40
